Measured values as given in patent publication US7642221B2, “Substituted thien-3-yl-sulphonylamino(thio)carbonyl-triazoline(ethi)ones” (Bayer Aktiengesellschaft, priority 1999, dated 2010).

How the values were obtained:
Format in all cases: in vivo
[1] = tested on: Cyperus; test: Pre-emergence test/greenhouse; conditions: greenhouse, rated after three weeks
Experimental: (§1) • Solvent: 5 parts by weight of acetone • Emulsifier: 1 part by weight of alkylaryl polyglycol ether
(§2) To produce a suitable preparation of active compound, 1 part by weight of active compound is mixed with the stated amount of solvent, the stated amount of emulsifier is added and the concentrate is diluted with water to the desired concentration.
(§3) Seeds of the test plants are sown in normal soil. After about 24 hours, the soil is sprayed with the preparation of active compound such that the particular amount of active compound desired is applied per unit area. The concentration of the spray liquor is chosen so that the particular amount of active compound desired is applied in 1000 liters of water per hectare.
(§4) After three weeks, the degree of damage to the plants is rated in % damage in comparison to the development of the untreated control.
(§5) The figure denote: • 0%=no effect (like untreated control) • 100%=total destruction

[2] = tested on: Xanthium; test: Pre-emergence test/greenhouse; conditions: greenhouse, 250 g of ai/ha, rated after three weeks
Experimental: as §1, §2, §3, §4, §5

[3] = tested on: Sinapis; test: Pre-emergence test/greenhouse; conditions: greenhouse, 250 g of ai/ha, rated after three weeks
Experimental: as §1, §2, §3, §4, §5

[4] = tested on: Abutilon; test: Pre-emergence test/greenhouse; conditions: greenhouse, 250 g of ai/ha, rated after three weeks
Experimental: as §1, §2, §3, §4, §5

[5] = tested on: Setaria; test: Pre-emergence test/greenhouse; conditions: greenhouse, rated after three weeks
Experimental: as §1, §2, §3, §4, §5

[6] = tested on: Amaranthus; test: Pre-emergence test/greenhouse; conditions: greenhouse, rated after three weeks
Experimental: as §1, §2, §3, §4, §5

[7] = tested on: Galium; test: Pre-emergence test/greenhouse; conditions: greenhouse, 250 g of ai/ha, rated after three weeks
Experimental: as §1, §2, §3, §4, §5

[8] = tested on: Alopecurus; test: Pre-emergence test/greenhouse; conditions: greenhouse, rated after three weeks
Experimental: as §1, §2, §3, §4, §5

[9] = tested on: weeds; test: Pre-emergence test, activity against weeds
Experimental: as §1, §2, §3, §4, §5

[10] = tested on: Wheat; test: Post-emergence test/greenhouse; conditions: greenhouse, rated after three weeks
Experimental: as §1
(§6) To produce a suitable preparation of active compound, one part by weight of active compound is mixed with the stated amount of solvent, the stated amount of emulsifier is added and the concentrate is diluted with water to the desired concentration.
(§7) Test plants which have a height of 5-15 cm are sprayed with the preparation of active compound such that the particular amounts of active compound desired are applied per unit area. The concentration of the spray liquor is chosen so that the particular amounts of active compound desired are applied in 1000 l of water/ha.
as §4
(§8) The figures denote: • 0%=no effect (like untreated control) • 100%=total destruction

[11] = tested on: Viola; test: Post-emergence test/greenhouse; conditions: greenhouse, 2 g of ai/ha, rated after three weeks
Experimental: as §1, §6, §7, §4, §8

[12] = tested on: Veronica; test: Post-emergence test/greenhouse; conditions: greenhouse, 2 g of ai/ha, rated after three weeks
Experimental: as §1, §6, §7, §4, §8

[13] = tested on: Amaranthus; test: Post-emergence test/greenhouse; conditions: greenhouse, rated after three weeks
Experimental: as §1, §6, §7, §4, §8

[14] = tested on: Chenopodium; test: Post-emergence test/greenhouse; conditions: greenhouse, 2 g of ai/ha, rated after three weeks
Experimental: as §1, §6, §7, §4, §8

[15] = tested on: Echinochloa; test: Post-emergence test/greenhouse; conditions: greenhouse, 2 g of ai/ha, rated after three weeks
Experimental: as §1, §6, §7, §4, §8

[16] = tested on: Stellaria; test: Post-emergence test/greenhouse; conditions: greenhouse, rated after three weeks
Experimental: as §1, §6, §7, §4, §8

[17] = tested on: Barley; test: Post-emergence test/greenhouse; conditions: greenhouse, 2 g of ai/ha, rated after three weeks
Experimental: as §1, §6, §7, §4, §8

[18] = tested on: weeds; test: Post-emergence test, activity against weeds
Experimental: as §1, §6, §7, §4, §8

[19] = tested on: Maize; test: Post-emergence test/greenhouse; conditions: greenhouse, 15 g of ai/ha, rated after three weeks
Experimental: as §1, §6, §7, §4, §8

[20] = tested on: Abutilon; test: Post-emergence test/greenhouse; conditions: greenhouse, rated after three weeks
Experimental: as §1, §6, §7, §4, §8

[21] = tested on: Solanum; test: Post-emergence test/greenhouse; conditions: greenhouse, rated after three weeks
Experimental: as §1, §6, §7, §4, §8

[22] = tested on: Setaria; test: Post-emergence test/greenhouse; conditions: greenhouse, rated after three weeks
Experimental: as §1, §6, §7, §4, §8

[23] = tested on: Maize; test: Pre-emergence test/greenhouse; conditions: greenhouse, 60 g of ai/ha, rated after three weeks
Experimental: as §1, §2, §3, §4, §5

[24] = tested on: Digitaria; test: Pre-emergence test/greenhouse; conditions: greenhouse, 60 g of ai/ha, rated after three weeks
Experimental: as §1, §2, §3, §4, §5

[25] = tested on: Matricaria; test: Pre-emergence test/greenhouse; conditions: greenhouse, 60 g of ai/ha, rated after three weeks
Experimental: as §1, §2, §3, §4, §5

[26] = tested on: Solanum; test: Pre-emergence test/greenhouse; conditions: greenhouse, rated after three weeks
Experimental: as §1, §2, §3, §4, §5

[27] = tested on: Chenopodium; test: Pre-emergence test/greenhouse; conditions: greenhouse, 60 g of ai/ha, rated after three weeks
Experimental: as §1, §2, §3, §4, §5

[28] = tested on: Xanthium; test: Post-emergence test/greenhouse; conditions: greenhouse, 250 g of ai/ha, rated after three weeks
Experimental: as §1, §6, §7, §4, §8

[29] = tested on: Sinapis; test: Post-emergence test/greenhouse; conditions: greenhouse, 250 g of ai/ha, rated after three weeks
Experimental: as §1, §6, §7, §4, §8

[30] = tested on: Avenafatua; test: Post-emergence test/greenhouse; conditions: greenhouse, 250 g of ai/ha, rated after three weeks
Experimental: as §1, §6, §7, §4, §8

[31] = tested on: Alopecurus; test: Post-emergence test/greenhouse; conditions: greenhouse, 250 g of ai/ha, rated after three weeks
Experimental: as §1, §6, §7, §4, §8

[32] = tested on: Wheat; test: Pre-emergence test/greenhouse; conditions: greenhouse, 125 g of ai/ha, rated after three weeks
Experimental: as §1, §2, §3, §4, §5

[33] = tested on: Viola; test: Pre-emergence test/greenhouse; conditions: greenhouse, 125 g of ai/ha, rated after three weeks
Experimental: as §1, §2, §3, §4, §5

[34] = tested on: Bromus; test: Pre-emergence test/greenhouse; conditions: greenhouse, 125 g of ai/ha, rated after three weeks
Experimental: as §1, §2, §3, §4, §5

[35] = tested on: Veronica; test: Pre-emergence test/greenhouse; conditions: greenhouse, 125 g of ai/ha, rated after three weeks
Experimental: as §1, §2, §3, §4, §5

[36] = tested on: Echinochloa; test: Pre-emergence test/greenhouse; conditions: greenhouse, 125 g of ai/ha, rated after three weeks
Experimental: as §1, §2, §3, §4, §5

[37] = tested on: Stellaria; test: Pre-emergence test/greenhouse; conditions: greenhouse, 125 g of ai/ha, rated after three weeks
Experimental: as §1, §2, §3, §4, §5

[38] = tested on: Ipomoea; test: Post-emergence test/greenhouse; conditions: greenhouse, 8 g of ai/ha, rated after three weeks
Experimental: as §1, §6, §7, §4, §8

[39] = tested on: Matricaria; test: Post-emergence test/greenhouse; conditions: greenhouse, 8 g of ai/ha, rated after three weeks
Experimental: as §1, §6, §7, §4, §8

SMILES: COC(=O)c1csc(C)c1S(=O)(=O)NC(=O)n1nc(OC)n(C2CC2)c1=O [Example 5]
- degree of damage to the plants, Cyperus ([1]; 250 g of ai/ha): 100%
- degree of damage to the plants, Xanthium [2]: 99%
- degree of damage to the plants, Sinapis [3]: 95%
- degree of damage to the plants, Abutilon [4]: 95%
- degree of damage to the plants, Setaria ([5]; 250 g of ai/ha): 100%
- degree of damage to the plants, Amaranthus ([6]; 250 g of ai/ha): 100%
- degree of damage to the plants, Galium [7]: 95%
- degree of damage to the plants, Alopecurus ([8]; 250 g of ai/ha): 99%
- activity against weeds [9]: very strong activity
- degree of damage to the plants, Wheat ([10]; 2 g of ai/ha): 10%
- degree of damage to the plants, Viola [11]: 90%
- degree of damage to the plants, Veronica [12]: 90%
- degree of damage to the plants, Amaranthus ([13]; 2 g of ai/ha): 99%
- degree of damage to the plants, Chenopodium [14]: 95%
- degree of damage to the plants, Echinochloa [15]: 95%
- degree of damage to the plants, Stellaria ([16]; 2 g of ai/ha): 100%
- degree of damage to the plants, Barley [17]: 10%
- activity against weeds [18]: very strong activity

SMILES: COC(=O)c1csc(C)c1S(=O)(=O)NC(=O)n1nc(C)n(C)c1=O [Example 10]
- degree of damage to the plants, Cyperus ([1]; 250 g of ai/ha): 95%
- degree of damage to the plants, Xanthium [2]: 90%
- degree of damage to the plants, Sinapis [3]: 100%
- degree of damage to the plants, Abutilon [4]: 95%
- degree of damage to the plants, Setaria ([5]; 250 g of ai/ha): 100%
- degree of damage to the plants, Amaranthus ([6]; 250 g of ai/ha): 100%
- degree of damage to the plants, Galium [7]: 95%
- degree of damage to the plants, Alopecurus ([8]; 250 g of ai/ha): 95%
- activity against weeds [9]: very strong activity
- degree of damage to the plants, Wheat ([10]; 15 g of ai/ha): 10%
- degree of damage to the plants, Maize [19]: 10%
- degree of damage to the plants, Abutilon ([20]; 15 g of ai/ha): 90%
- degree of damage to the plants, Solanum ([21]; 15 g of ai/ha): 90%
- degree of damage to the plants, Setaria ([22]; 15 g of ai/ha): 95%
- degree of damage to the plants, Amaranthus ([13]; 15 g of ai/ha): 90%
- degree of damage to the plants, Stellaria ([16]; 15 g of ai/ha): 95%
- activity against weeds [18]: very strong activity

SMILES: CCc1nn(C(=O)NS(=O)(=O)c2c(C(=O)OC)csc2C)c(=O)n1C [Example 11]
- degree of damage to the plants, Maize [23]: 10%
- degree of damage to the plants, Digitaria [24]: 100%
- degree of damage to the plants, Matricaria [25]: 100%
- degree of damage to the plants, Solanum ([26]; 60 g of ai/ha): 100%
- degree of damage to the plants, Setaria ([5]; 60 g of ai/ha): 100%
- degree of damage to the plants, Amaranthus ([6]; 60 g of ai/ha): 100%
- degree of damage to the plants, Chenopodium [27]: 100%
- degree of damage to the plants, Alopecurus ([8]; 60 g of ai/ha): 100%
- activity against weeds [9]: very strong activity
- degree of damage to the plants, Xanthium [28]: 100%
- degree of damage to the plants, Sinapis [29]: 100%
- degree of damage to the plants, Abutilon ([20]; 250 g of ai/ha): 100%
- degree of damage to the plants, Avenafatua [30]: 100%
- degree of damage to the plants, Setaria ([22]; 250 g of ai/ha): 100%
- degree of damage to the plants, Amaranthus ([13]; 250 g of ai/ha): 100%
- degree of damage to the plants, Alopecurus [31]: 100%
- activity against weeds [18]: very strong activity

SMILES: COC(=O)c1csc(C)c1S(=O)(=O)NC(=O)n1nc(OC(C)C)n(C)c1=O [Example 4]
- degree of damage to the plants, Cyperus ([1]; 125 g of ai/ha): 100%
- degree of damage to the plants, Wheat [32]: 20%
- degree of damage to the plants, Viola [33]: 100%
- degree of damage to the plants, Bromus [34]: 100%
- degree of damage to the plants, Solanum ([26]; 125 g of ai/ha): 100%
- degree of damage to the plants, Veronica [35]: 100%
- degree of damage to the plants, Echinochloa [36]: 100%
- degree of damage to the plants, Stellaria [37]: 100%
- activity against weeds [9]: very strong activity
- degree of damage to the plants, Ipomoea [38]: 95%
- degree of damage to the plants, Wheat ([10]; 8 g of ai/ha): 10%
- degree of damage to the plants, Matricaria [39]: 90%
- degree of damage to the plants, Abutilon ([20]; 8 g of ai/ha): 95%
- degree of damage to the plants, Solanum ([21]; 8 g of ai/ha): 95%
- degree of damage to the plants, Amaranthus ([13]; 8 g of ai/ha): 95%
- degree of damage to the plants, Stellaria ([16]; 8 g of ai/ha): 95%
- activity against weeds [18]: very strong activity
